Results published in paper PMC10699557, “A recombinant approach for stapled peptide discovery yields inhibitors of the RAD51 recombinase” (Chemical Science, 2023).

Assay: Two-component Cys-Cys stapling with divinyltriazine (DVT): double thia-Michael addition on recombinant StrepII-GB1-peptide-His8 fusions, stepwise linker addition (pseudo-dilution), DTT quench
Details: the molecule shown is the open-chain precursor, PBS + 200 mM imidazole (2 mM linker stock in DMSO added stepwise), 0.02 mM, scale: 1 = stapled product confirmed by ESI-MS as

Substance: StrepII-GB1-...GSDP-ACGFSTASGKKLNVSCEALQKAVKLFSDIENIS-DPGS...-His8 (free Cys thiols, + DVT)
- ring closure, product found (54-membered ring): 1

Substance: StrepII-GB1-...GSDP-SCFSTASGKKLNVSCEALQKAVKLFSDIENIS-DPGS...-His8 (free Cys thiols, + DVT)
- ring closure, product found (51-membered ring): 1

Substance: StrepII-GB1-...GSDP-SSACSGFSTASGKKLNVSTEACQKAVKLFSDIENIS-DPGS...-His8 (free Cys thiols, + DVT)
- ring closure, product found (66-membered ring): 1

Substance: StrepII-GB1-...GSDP-VNSSAFSGFSTASGKKLNVSCEALQKACKLFSDIENIS-DPGS...-His8 (free Cys thiols, + DVT)
- ring closure, product found (33-membered ring): 1

Substance: StrepII-GB1-...GSDP-VNSSAFSGFSTASGKKLNVSTEALQKACKLFSDIECIS-DPGS...-His8 (free Cys thiols, + DVT)
- ring closure, product found (36-membered ring): 1
